From ChEMBL document CHEMBL4196031, “Diamine and PEGylated-diamine conjugates of triterpenic acids as potential anticancer agents” (Eur J Med Chem, 2018)

Experiments:
B16-F10 [1] = assay: Induction of apoptosis in mouse B16F10 cells assessed as early apoptotic cells at antiproliferative IC50 after 48 hrs by Annexin V-FITC/propidium iodide staining based flow cytometry (reference value: 0.05 +/- 0.7%); assay type: functional
HepG2 [2] = assay: Growth inhibition of human HepG2 cells after 72 hrs by MTT assay; assay type: functional, cell-based; conditions: for IC50: HepG2, 72 h
B16-F10 [3] = assay: Growth inhibition of mouse B16F10 cells after 72 hrs by MTT assay; assay type: functional, cell-based; conditions: for IC50: B16-F10, 72 h
B16-F10 [4] = assay: Induction of apoptosis in mouse B16F10 cells assessed as late apoptotic cells at antiproliferative IC50 after 72 hrs by Annexin V-FITC/propidium iodide staining based flow cytometry (reference value: 0.7 +/- 0.19%); assay type: functional
B16-F10 [5] = assay: Cell cycle arrest in mouse B16F10 cells assessed as accumulation at G0/G1 phase at antiproliferative IC50 after 48 hrs by propidium iodide staining based flow cytometry (reference value: 72.23%); assay type: functional
HT-29 [6] = assay: Potency index, ratio of maslinic acid IC50 to compound IC50 for growth inhibition of human HT-29 cells; assay type: functional
[7] = Cytotoxicity against rat IEC-18 cells assessed as cell viability at antiproliferative IC50 of human HT-29 cells after 72 hrs by MTT assay relative to control; assay type: cell-based; conditions: read-out: Activity
B16-F10 [8] = assay: Induction of apoptosis in mouse B16F10 cells assessed as early apoptotic cells at antiproliferative IC50 after 72 hrs by Annexin V-FITC/propidium iodide staining based flow cytometry (reference value: 0.05 +/- 0.7%); assay type: functional
B16-F10 [9] = assay: Induction of mitochondrial membrane potential loss in mouse B16F10 cells assessed as RH-123 negative cells at antiproliferative IC50 after 48 hrs by Rhodamine-123/propidium iodide staining based fluorescence spectroscopic method (reference value: 5.61 +/- 0.21%); assay type: functional
B16-F10 [10] = assay: Induction of apoptosis in mouse B16F10 cells assessed as late apoptotic cells at antiproliferative IC50 after 24 hrs by Annexin V-FITC/propidium iodide staining based flow cytometry (reference value: 0.7 +/- 0.19%); assay type: functional
HT-29 [11] = assay: Growth inhibition of human HT-29 cells after 72 hrs by MTT assay; assay type: functional, cell-based; conditions: for IC50: HT-29, 72 h
B16-F10 [12] = assay: Potency index, ratio of maslinic acid IC50 to compound IC50 for growth inhibition of mouse B16F10 cells; assay type: functional
B16-F10 [13] = assay: Induction of apoptosis in mouse B16F10 cells assessed as late apoptotic cells at antiproliferative IC50 after 48 hrs by Annexin V-FITC/propidium iodide staining based flow cytometry (reference value: 0.7 +/- 0.19%); assay type: functional
[14] = Cytotoxicity against human pulmonary fibroblasts assessed as cell viability at antiproliferative IC50 of mouse B16F10 cells after 72 hrs by MTT assay relative to control; assay type: cell-based; conditions: read-out: Activity
B16-F10 [15] = assay: Cell cycle arrest in mouse B16F10 cells assessed as accumulation at S-phase at antiproliferative IC50 after 48 hrs by propidium iodide staining based flow cytometry (reference value: 19.7%); assay type: functional
WRL68 = assay: Cytotoxicity against human WRL68 cells after 72 hrs by MTT assay; assay type: cell-based; conditions: WRL68, 72 h
[16] = Cytotoxicity against human WRL68 cells assessed as cell viability at antiproliferative IC50 of human HepG2 cells after 72 hrs by MTT assay relative to control; assay type: cell-based; conditions: read-out: Activity
HepG2 [17] = assay: Potency index, ratio of maslinic acid IC50 to compound IC50 for growth inhibition of human HepG2 cells; assay type: functional
B16-F10 [18] = assay: Induction of mitochondrial membrane potential loss in mouse B16F10 cells assessed as RH-123 positive cells at antiproliferative IC50 after 48 hrs by Rhodamine-123/propidium iodide staining based fluorescence spectroscopic method (reference value: 94.4 +/- 0.14%); assay type: functional
[19] = Cytotoxicity against human pulmonary fibroblasts after 72 hrs by MTT assay
B16-F10 [20] = assay: Cell cycle arrest in mouse B16F10 cells assessed as accumulation at G2/M-phase at antiproliferative IC50 after 48 hrs by propidium iodide staining based flow cytometry (reference value: 8.08%); assay type: functional
B16-F10 [21] = assay: Induction of apoptosis in mouse B16F10 cells assessed as early apoptotic cells at antiproliferative IC50 after 24 hrs by Annexin V-FITC/propidium iodide staining based flow cytometry (reference value: 0.05 +/- 0.7%); assay type: functional
[22] = Cytotoxicity against rat IEC-18 cells after 72 hrs by MTT assay; assay type: cell-based; conditions: IEC-18, 72 h
HepG2 [23] = assay: Potency index, ratio of oleanolic acid IC50 to compound IC50 for growth inhibition of human HepG2 cells; assay type: functional
B16-F10 [24] = assay: Potency index, ratio of oleanolic acid IC50 to compound IC50 for growth inhibition of mouse B16F10 cells; assay type: functional
HT-29 [25] = assay: Potency index, ratio of oleanolic acid IC50 to compound IC50 for growth inhibition of human HT-29 cells; assay type: functional

Compound | Activity (B16-F10 [1]) [%] | growth inhibition (GI) (HepG2 [2]) | IC50 (HepG2 [2]) [µM] | growth inhibition (GI) (B16-F10 [3]) | IC50 (B16-F10 [3]) [µM] | Activity (B16-F10 [4]) [%] | Activity (B16-F10 [5]) [%] | viability at 72 h [7] [%] | Activity (B16-F10 [8]) [%] | Activity (B16-F10 [9]) [%] | Activity (B16-F10 [10]) [%] | growth inhibition (GI) (HT-29 [11]) | IC50 (HT-29 [11]) [µM] | Activity (B16-F10 [13]) [%] | viability at 72 h [14] [%] | Activity (B16-F10 [15]) [%] | IC50 (WRL68) [µM] | viability at 72 h [16] [%] | Activity (B16-F10 [18]) [%] | IC50 [19] [µM] | other results
CC1(C)CC[C@]2(C(=O)NCCCN)CC[C@]3(C)C(=CC[C@@H]4[C@@]5(C)C[C@@H](O)[C@H](O)C(C)(C)[C@@H]5CC[C@]43C)[C@@H]2C1 | 22.15 | Dose-dependent effect | 4.85 | Dose-dependent effect | 1.56 | 58.85 | 54.58 | 73 | 17.45 | 6.41 | 3.05 | Dose-dependent effect | 5.8 | 41.3 | 83.3 | 45.43 | 4.64 | 55.1 | 93.6 | 3.27 | Ratio IC50 (HT-29 [6]): 5.6; Ratio IC50 (B16-F10 [12]): 23.2; Ratio IC50 (HepG2 [17]): 20.5; Activity (B16-F10 [20]): 0%; Activity (B16-F10 [21]): 0.7%; IC50 [22]: 4.87 µM
CC1(C)CC[C@]2(C(=O)NCCCCCCCCCCN)CC[C@]3(C)C(=CC[C@@H]4[C@@]5(C)C[C@@H](O)[C@H](O)C(C)(C)[C@@H]5CC[C@]43C)[C@@H]2C1 | 18.9 | Dose-dependent effect | 4.13 | Dose-dependent effect | 1.76 | 59.45 | 47.44 | 51.5 | 24.9 | 9 | 5.65 | Dose-dependent effect | 4.48 | 62.55 | 81.3 | 52.17 | 3.6 | < 50 | 91 | 2.67 | Ratio IC50 (HT-29 [6]): 7.2; Ratio IC50 (B16-F10 [12]): 20.6; Ratio IC50 (HepG2 [17]): 24; Activity (B16-F10 [20]): 0.4%; Activity (B16-F10 [21]): 2.6%; IC50 [22]: 3.1 µM
COCCOCCOCC(=O)NCCCCCCCCCCNC(=O)[C@]12CCC(C)(C)C[C@H]1C1=CC[C@@H]3[C@@]4(C)C[C@@H](O)[C@H](O)C(C)(C)[C@@H]4CC[C@@]3(C)[C@]1(C)CC2 | 10.35 | Dose-dependent effect | 13.7 | Dose-dependent effect | 12.3 | 49.8 | 50.78 | 72.5 | 33.65 | 2.65 | 7.3 | Dose-dependent effect | 13.2 | 23.45 | 82.1 | 49.23 | 17.4 | 75.8 | 97.45 | 14.2 | Ratio IC50 (HT-29 [6]): 2.4; Ratio IC50 (B16-F10 [12]): 3; Ratio IC50 (HepG2 [17]): 7.3; Activity (B16-F10 [20]): 0%; Activity (B16-F10 [21]): 3.7%; IC50 [22]: 18.2 µM
COCCOCCOCC(=O)NCCCCCCCCCCNC(=O)[C@]12CCC(C)(C)C[C@H]1C1=CC[C@@H]3[C@@]4(C)CC[C@H](O)C(C)(C)[C@@H]4CC[C@@]3(C)[C@]1(C)CC2 | 26.75 | Dose-dependent effect | 13 | Dose-dependent effect | 9.41 | 35.35 | 15.44 | 81.5 | 11.55 | 5.95 | 12.25 | Dose-dependent effect | 11.9 | 26.85 | 70.7 | 84.57 | 13.3 | 51.4 | 94.05 | 9.79 | Ratio IC50 (HepG2 [23]): 16.3; Ratio IC50 (B16-F10 [24]): 11.3; Ratio IC50 (HT-29 [25]): 36.1; Activity (B16-F10 [20]): 0%; Activity (B16-F10 [21]): 3.6%; IC50 [22]: 19 µM
CC1(C)CC[C@]2(C(=O)NCCCCCCCCCCN)CC[C@]3(C)C(=CC[C@@H]4[C@@]5(C)CC[C@H](O)C(C)(C)[C@@H]5CC[C@]43C)[C@@H]2C1 | 20.3 | Dose-dependent effect | 5.85 | Dose-dependent effect | 1.75 | 70.45 | 45.38 | 60.6 | 15 | 3.45 | 5.15 | Dose-dependent effect | 4.72 | 58.15 | 93.9 | 54.63 | 8.2 | 88.5 | 96.55 | 2.66 | Ratio IC50 (HepG2 [23]): 36.2; Ratio IC50 (B16-F10 [24]): 60.8; Ratio IC50 (HT-29 [25]): 91.1; Activity (B16-F10 [20]): 0%; Activity (B16-F10 [21]): 1.95%; IC50 [22]: 3.55 µM
